Measured values from PMC12951562, “SH2scan: Mapping SH2 Domain-Ligand Binding Selectivity for Inhibitors and Degraders” (Journal of Medicinal Chemistry, 2026).
Like-named read-outs stand apart in the source and are kept apart here. Non-standard residues stand in square brackets, D forms with d. Residues, ends and D or L forms follow the SMILES beside them. *: point of attachment. pY = N[C@@H](Cc1ccc(OP(=O)(O)O)cc1)C(=O)O; Caffeoyl = O=C(/C=C/c1ccc(O)c(O)c1)*

Tests used:
Test in all cases: biochemical
Type in all cases: binding
TNS1 = target: T1, TNS1 (Homo sapiens, UniProt Q9HBL0)
T1 construct: made in house; host or cells: HEK293 (transient transfection), unpurified extract

SOCS2 = target: T2, SOCS2 (Homo sapiens, UniProt O14508); settings: for remaining activity at 10 µM: read-out: percent of DMSO vehicle control
T2 construct: made in house; host or cells: HEK293 (transient transfection), unpurified extract
T2 sequence (O14508 1-198): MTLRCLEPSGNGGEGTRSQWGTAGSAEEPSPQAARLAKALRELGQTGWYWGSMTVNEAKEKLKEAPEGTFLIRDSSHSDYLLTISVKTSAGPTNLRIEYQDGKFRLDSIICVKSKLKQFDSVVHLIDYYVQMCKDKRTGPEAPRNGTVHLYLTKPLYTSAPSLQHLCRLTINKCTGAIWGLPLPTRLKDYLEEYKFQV

SHF = target: T3, SHF (Homo sapiens, UniProt Q7M4L6); settings: for remaining activity at 10 µM: read-out: percent of DMSO vehicle control
T3 construct: made in house; host or cells: HEK293 (transient transfection), unpurified extract
T3 sequence (Q7M4L6 1-423): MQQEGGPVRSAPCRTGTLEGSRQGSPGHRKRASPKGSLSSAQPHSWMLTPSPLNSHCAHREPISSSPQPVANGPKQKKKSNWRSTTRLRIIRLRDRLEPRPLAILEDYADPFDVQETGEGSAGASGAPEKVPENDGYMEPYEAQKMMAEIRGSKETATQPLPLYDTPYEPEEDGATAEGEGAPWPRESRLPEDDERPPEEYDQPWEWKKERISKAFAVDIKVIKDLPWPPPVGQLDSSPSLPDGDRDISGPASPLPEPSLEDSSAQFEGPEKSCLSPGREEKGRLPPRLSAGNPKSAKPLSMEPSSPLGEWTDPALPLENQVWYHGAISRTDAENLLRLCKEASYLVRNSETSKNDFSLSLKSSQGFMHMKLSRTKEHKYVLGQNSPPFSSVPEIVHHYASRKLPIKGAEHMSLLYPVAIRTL

SOCS7 = target: T4, SOCS7 (Homo sapiens, UniProt O14512); settings: for remaining activity at 10 µM: read-out: percent of DMSO vehicle control
T4 construct: made in house; host or cells: HEK293 (transient transfection), unpurified extract
T4 sequence (O14512 1-581): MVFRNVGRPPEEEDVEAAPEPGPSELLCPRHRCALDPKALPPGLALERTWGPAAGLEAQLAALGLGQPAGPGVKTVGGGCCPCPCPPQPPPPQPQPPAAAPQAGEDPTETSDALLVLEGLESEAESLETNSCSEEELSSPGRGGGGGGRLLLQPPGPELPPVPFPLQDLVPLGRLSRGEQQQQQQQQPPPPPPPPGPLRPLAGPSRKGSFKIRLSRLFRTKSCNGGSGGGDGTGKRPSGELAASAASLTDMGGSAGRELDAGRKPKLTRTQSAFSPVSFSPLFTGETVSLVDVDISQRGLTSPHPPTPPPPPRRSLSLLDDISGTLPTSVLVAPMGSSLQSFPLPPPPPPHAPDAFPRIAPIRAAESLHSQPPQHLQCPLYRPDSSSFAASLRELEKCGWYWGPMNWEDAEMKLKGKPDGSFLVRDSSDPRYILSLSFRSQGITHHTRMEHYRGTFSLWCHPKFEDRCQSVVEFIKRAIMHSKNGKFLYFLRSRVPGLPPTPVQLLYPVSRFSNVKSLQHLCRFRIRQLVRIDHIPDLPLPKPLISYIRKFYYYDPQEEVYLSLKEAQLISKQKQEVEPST

PIK3R2(SH2dom.C-term.) = target: T5, PIK3R2(SH2dom.C-term.) (Homo sapiens, UniProt O00459); settings: for KD: dose-response; for remaining activity at 10 µM: read-out: percent of DMSO vehicle control
T5 construct: SH2dom.C-term. denotes SH2 domain closest to C-terminus of protein; made in house; host or cells: HEK293 (transient transfection, unpurified extract)
T5 sequence (O00459 622-716 limits assumed): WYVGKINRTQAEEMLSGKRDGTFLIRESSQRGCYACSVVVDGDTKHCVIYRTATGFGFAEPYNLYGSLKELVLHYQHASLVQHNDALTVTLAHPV

TXK = target: T6, TXK (Homo sapiens, UniProt P42681); settings: for remaining activity at 10 µM: read-out: percent of DMSO vehicle control
T6 construct: made in house; host or cells: HEK293 (transient transfection), unpurified extract
T6 sequence (P42681 1-527): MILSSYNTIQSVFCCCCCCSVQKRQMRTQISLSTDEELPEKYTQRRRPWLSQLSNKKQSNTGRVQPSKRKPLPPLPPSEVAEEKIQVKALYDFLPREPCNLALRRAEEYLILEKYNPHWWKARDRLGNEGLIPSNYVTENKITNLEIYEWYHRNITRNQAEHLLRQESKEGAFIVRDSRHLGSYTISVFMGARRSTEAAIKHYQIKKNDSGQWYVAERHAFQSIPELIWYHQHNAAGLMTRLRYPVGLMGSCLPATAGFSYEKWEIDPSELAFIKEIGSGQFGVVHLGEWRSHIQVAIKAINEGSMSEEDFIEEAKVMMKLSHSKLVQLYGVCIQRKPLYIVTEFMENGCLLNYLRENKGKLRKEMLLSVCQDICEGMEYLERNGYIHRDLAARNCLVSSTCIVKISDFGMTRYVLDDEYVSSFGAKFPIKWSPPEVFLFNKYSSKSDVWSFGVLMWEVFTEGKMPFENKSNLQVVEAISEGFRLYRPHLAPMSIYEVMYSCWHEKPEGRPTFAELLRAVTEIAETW

ABL1 = target: T7, ABL1 (Homo sapiens, UniProt P00519)
T7 construct: the DNA-tagged SH2 domain concentrations used in this study were <0.1 nM; made in house; host or cells: HEK293 (transient transfection; unpurified extract)
T7 sequence (P00519 127-217 limits assumed): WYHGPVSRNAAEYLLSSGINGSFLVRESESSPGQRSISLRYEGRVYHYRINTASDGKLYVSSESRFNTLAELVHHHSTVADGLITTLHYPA

PIK3R3(SH2dom.C-term.) = target: T8, PIK3R3(SH2dom.C-term.) (Homo sapiens, UniProt Q92569); settings: for remaining activity at 10 µM: read-out: percent of DMSO vehicle control
T8 construct: SH2dom.C-term. denotes SH2 domain closest to C-terminus of protein; made in house; host or cells: HEK293 (transient transfection, unpurified extract)

STAP1 = target: T9, STAP1 (Homo sapiens, UniProt Q9ULZ2); settings: for remaining activity at 10 µM: read-out: percent of DMSO vehicle control
T9 construct: made in house; host or cells: HEK293 (transient transfection), unpurified extract
T9 sequence (Q9ULZ2 1-295): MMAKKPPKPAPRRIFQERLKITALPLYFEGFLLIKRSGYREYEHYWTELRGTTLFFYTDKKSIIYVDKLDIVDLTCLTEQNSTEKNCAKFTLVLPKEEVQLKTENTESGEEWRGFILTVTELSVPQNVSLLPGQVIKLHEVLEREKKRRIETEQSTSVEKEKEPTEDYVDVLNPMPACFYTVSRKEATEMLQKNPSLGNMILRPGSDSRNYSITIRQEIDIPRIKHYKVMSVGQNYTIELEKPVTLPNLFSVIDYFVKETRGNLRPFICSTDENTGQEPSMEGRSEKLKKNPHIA

[1] = read-out: percent of DMSO vehicle control
[2] = primary screen, 10 μM, read-out: percent of DMSO vehicle control

T1 sequence (Q9HBL0 whole entry): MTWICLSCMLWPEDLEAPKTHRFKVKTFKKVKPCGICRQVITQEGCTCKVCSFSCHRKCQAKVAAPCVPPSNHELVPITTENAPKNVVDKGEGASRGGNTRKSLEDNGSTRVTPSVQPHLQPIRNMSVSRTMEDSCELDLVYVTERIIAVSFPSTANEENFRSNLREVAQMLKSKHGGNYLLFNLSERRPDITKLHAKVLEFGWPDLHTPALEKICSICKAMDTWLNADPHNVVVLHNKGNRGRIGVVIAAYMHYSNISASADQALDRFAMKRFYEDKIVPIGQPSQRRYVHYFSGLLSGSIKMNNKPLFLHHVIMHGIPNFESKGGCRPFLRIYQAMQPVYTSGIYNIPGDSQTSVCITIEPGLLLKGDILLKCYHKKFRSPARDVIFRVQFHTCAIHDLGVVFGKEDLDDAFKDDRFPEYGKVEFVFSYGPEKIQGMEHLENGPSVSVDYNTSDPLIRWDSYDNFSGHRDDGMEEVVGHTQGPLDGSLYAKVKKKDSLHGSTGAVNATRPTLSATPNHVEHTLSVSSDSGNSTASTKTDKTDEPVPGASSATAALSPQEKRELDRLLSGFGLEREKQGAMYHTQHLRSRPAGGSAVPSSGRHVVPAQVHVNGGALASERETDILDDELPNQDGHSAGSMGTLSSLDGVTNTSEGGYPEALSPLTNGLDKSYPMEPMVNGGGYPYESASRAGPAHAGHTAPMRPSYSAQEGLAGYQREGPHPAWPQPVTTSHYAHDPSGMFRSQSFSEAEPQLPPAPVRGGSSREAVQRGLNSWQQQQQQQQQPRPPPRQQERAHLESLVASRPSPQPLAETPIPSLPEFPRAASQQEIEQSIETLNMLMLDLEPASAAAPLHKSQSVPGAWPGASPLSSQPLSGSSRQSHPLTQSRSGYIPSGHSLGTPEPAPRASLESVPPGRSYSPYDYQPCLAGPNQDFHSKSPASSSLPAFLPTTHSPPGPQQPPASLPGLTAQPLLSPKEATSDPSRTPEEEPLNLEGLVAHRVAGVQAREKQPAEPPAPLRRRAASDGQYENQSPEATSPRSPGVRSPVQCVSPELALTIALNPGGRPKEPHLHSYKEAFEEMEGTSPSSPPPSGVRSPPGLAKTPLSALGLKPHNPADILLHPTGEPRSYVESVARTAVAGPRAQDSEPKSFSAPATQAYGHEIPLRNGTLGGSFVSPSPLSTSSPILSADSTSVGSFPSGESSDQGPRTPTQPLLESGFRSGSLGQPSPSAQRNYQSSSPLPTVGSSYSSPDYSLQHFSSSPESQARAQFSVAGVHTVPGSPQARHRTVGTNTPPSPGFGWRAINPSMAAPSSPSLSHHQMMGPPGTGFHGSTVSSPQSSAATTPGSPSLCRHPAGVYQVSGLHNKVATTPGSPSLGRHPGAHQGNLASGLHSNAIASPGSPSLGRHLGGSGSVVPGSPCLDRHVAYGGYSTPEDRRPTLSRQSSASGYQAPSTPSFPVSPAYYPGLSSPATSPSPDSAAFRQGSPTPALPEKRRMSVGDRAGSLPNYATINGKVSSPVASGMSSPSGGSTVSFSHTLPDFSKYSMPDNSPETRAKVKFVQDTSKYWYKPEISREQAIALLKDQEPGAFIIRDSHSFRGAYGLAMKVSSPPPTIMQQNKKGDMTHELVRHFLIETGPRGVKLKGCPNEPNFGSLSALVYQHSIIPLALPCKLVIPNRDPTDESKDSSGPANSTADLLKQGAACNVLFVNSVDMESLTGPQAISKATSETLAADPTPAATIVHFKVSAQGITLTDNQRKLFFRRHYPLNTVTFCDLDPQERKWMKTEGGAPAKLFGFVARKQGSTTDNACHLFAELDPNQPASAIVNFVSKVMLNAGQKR

Row | Compound | Kd (TNS1) [nM] | Kd (PIK3R3(SH2dom.C-term.)) [nM] | remaining activity at 10 µM (SOCS2) [%] | remaining activity at 10 µM (SHF) [%] | remaining activity at 10 µM (SOCS7) [%] | KD (PIK3R2(SH2dom.C-term.)) | remaining activity at 10 µM (PIK3R2(SH2dom.C-term.)) [%] | remaining activity at 10 µM (TXK) [%] | Kd (ABL1) [nM] | percent of DMSO control binding at 10 µM (ABL1; [1]) [%] | percent of DMSO vehicle control at 10 µM (TNS1; [1]) [%] | remaining activity at 10 µM (PIK3R3(SH2dom.C-term.)) [%] | remaining activity at 10 µM (STAP1) [%] | other results
1 | CC[C@H](C)[C@H](NC(=O)[C@H](CO)NC(=O)[C@H](CC(C)C)NC(=O)[C@H](CCCNC(=N)N)NC(=O)[C@H](CO)NC(=O)[C@H](CS)NC(C)=O)C(=O)N[C@@H](Cc1ccc(OP(=O)(O)O)cc1)C(=O)N[C@@H](CC(=O)O)C(=O)N[C@@H](CC(N)=O)C(=O)N[C@H](C(=O)N1CCC[C@H]1C(=O)NCC(N)=O)C(C)C [Ac-CSRLSIpYDNVPG-NH2] (Ac-CSRLSI[pY]DNVPG-NH2) | 1350 ± 530 | – | – | – | – | – | – | – | – | – | – | – | – | –
2 | CC[C@H](C)[C@H](NC(=O)[C@H](CCC(=O)O)NC(=O)[C@H](CCC(=O)O)NC(=O)[C@H](Cc1ccc(OP(=O)(O)O)cc1)NC(C)=O)C(=O)N[C@@H](CCC(=O)O)C(N)=O [Ac-pYEEIE-NH2] (Ac-[pY]EEIE-NH2) | – | 14900 | – | – | – | – | – | – | – | – | – | – | – | percent of DMSO vehicle control (SOCS2; primary screen, 10 μM): 104.8%; percent of DMSO vehicle control (SHF; primary screen, 10 μM): 60.2%; percent of DMSO vehicle control (SOCS7; primary screen, 10 μM): 110.9%; percent of DMSO vehicle control (PIK3R2(SH2dom.C-term.); primary screen, 10 μM): 49.5±7.1%; percent of DMSO vehicle control (TXK; primary screen, 10 μM): 109.9%; percent of DMSO vehicle control (ABL1; primary screen, 10 μM): 106.1%; percent of DMSO vehicle control (TNS1; primary screen, 10 μM): 161.1%; percent of DMSO vehicle control (PIK3R3(SH2dom.C-term.); primary screen, 10 μM): 27.7±0.9%; percent of DMSO vehicle control (STAP1; primary screen, 10 μM): 101.0%
3 | CC(=O)N[C@@H](Cc1ccc(CP(=O)(O)O)cc1)C(=O)NC1(C(=O)N[C@@H](CC(N)=O)C(=O)NCCCc2c(O)ccc3ccccc23)CCCCC1 [CGP78850] | 408 | 48 | 119 ± 4.7 | 77.1 ± 2.6 | 126 ± 4.2 | No Hit | 0.4 ± 0.4 | 74.4 ± 2.5 | 560 ± 360 | 3.1 ± 1.7 | 16.4 ± 0.3 | 0 | 113 ± 2.6 | –
4 | CC[C@H](C)[C@H](NC(=O)[C@H](CCC(=O)O)NC(=O)[C@H](CCC(=O)O)NC(=O)[C@H](Cc1ccc(OP(=O)(O)O)cc1)NC(=O)/C=C/c1ccc(O)c(O)c1)C(=O)N[C@@H](CCC(=O)O)C(=O)O [Caffeic acid-pYEEIE] (Caffeoyl-[pY]EEIE-OH) | 3800 ± 610 | 230 ± 180 | 2.6 ± 0.1 | 50.6 ± 4.3 | 0.5 ± 0.4 | No Hit | 0.3 ± 0.9 | 2.7 ± 0.3 | 105 ± 17 | 0 | 25.5 ± 1.1 | 0.8 ± 0.1 | 77.9 ± 1 | Kd (SOCS2): 1300 ± 880 nM; Kd (SHF): 27200 ± 8880 nM; Kd (SOCS7): 280 ± 140 nM; Kd (TXK): 950 ± 250 nM
5 | O=C(CCl)Nc1cccc(CNC(=O)[C@H](Cc2ccc(OP(=O)(O)O)cc2)NC(=O)Cc2ccc(F)cc2)c1 [MN551] | – | – | – | – | – | No Hit | – | – | – | – | – | – | – | Kd (SOCS2; dose-response, read-out: KD): 400 nM; remaining activity at 10 µM (SOCS2; primary screen, 10 μM): 0%; remaining activity at 10 µM (SHF; primary screen, 10 μM): 103%; Kd (SOCS7; dose-response, read-out: KD): 8100 nM; remaining activity at 10 µM (SOCS7; primary screen, 10 μM): 21.9 ± 5%; remaining activity at 10 µM (PIK3R2(SH2dom.C-term.); primary screen, 10 μM): 30.3%; remaining activity at 10 µM (TXK; primary screen, 10 μM): 89.1%; remaining activity at 10 µM (ABL1; [2]): 35.7 ± 4.3%; remaining activity at 10 µM (TNS1; [2]): 134%; Kd (PIK3R3(SH2dom.C-term.); dose-response, read-out: KD): 4400 nM; remaining activity at 10 µM (PIK3R3(SH2dom.C-term.); primary screen, 10 μM): 27.3 ± 3.8%; remaining activity at 10 µM (STAP1; primary screen, 10 μM): 84.3 ± 2.8%
